Test results: PubChem BioAssay (NCI)
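Interpolation was linear, between the two tested concentrations surrounding the appropriate level; five concentrations were tested over 48 hours in 96-well plates. The concentration for 50% growth inhibition is given as GI50. At the TGI there is no net growth.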

What was measured:
Experiment in all cases: DTP human tumour cell line panel, 48 h
SNB-75 CNS = tested on: SNB-75 CNS
MOLT-4 leukemia = tested on: MOLT-4 leukemia
RPMI-8226 leukemia = tested on: RPMI-8226 leukemia
KM12 colon = tested on: KM12 colon
HS 578T breast = tested on: HS 578T breast
K-562 leukemia = tested on: K-562 leukemia
A549 NSCLC = tested on: A549 NSCLC
SNB-19 CNS = tested on: SNB-19 CNS
MALME-3M melanoma = tested on: MALME-3M melanoma
SR leukemia = tested on: SR leukemia
NCI-H460 lung = tested on: NCI-H460 lung
OVCAR-3 ovarian = tested on: OVCAR-3 ovarian
EKVX NSCLC = tested on: EKVX NSCLC
SF-268 CNS = tested on: SF-268 CNS
UACC-62 melanoma = tested on: UACC-62 melanoma
PC-3 prostate = tested on: PC-3 prostate
A498 renal = tested on: A498 renal
MDA-MB-231 breast = tested on: MDA-MB-231 breast
IGROV1 ovarian = tested on: IGROV1 ovarian
UACC-257 melanoma = tested on: UACC-257 melanoma
ACHN renal = tested on: ACHN renal
HOP-62 NSCLC = tested on: HOP-62 NSCLC
NCI-H226 lung = tested on: NCI-H226 lung
T-47D breast = tested on: T-47D breast
SN12C renal = tested on: SN12C renal
NCI/ADR-RES ovarian = tested on: NCI/ADR-RES ovarian
HCT-15 colon = tested on: HCT-15 colon
DU-145 prostate = tested on: DU-145 prostate

Structure (SMILES): N#Cc1c(NC(=O)c2cccc3ccccc23)sc2c1CCCC2
- GI50 (SNB-75 CNS): 35.1 nM
- TGI (SNB-75 CNS): > 25000 nM
- GI50 (MOLT-4 leukemia): 102 nM
- TGI (MOLT-4 leukemia): > 25000 nM
- GI50 (RPMI-8226 leukemia): 87.2 nM
- TGI (RPMI-8226 leukemia): > 25000 nM
- GI50 (KM12 colon): 105 nM
- TGI (KM12 colon): > 25000 nM
- GI50 (HS 578T breast): 15.6 nM
- GI50 (K-562 leukemia): 11.5 nM
- TGI (K-562 leukemia): > 25000 nM
- GI50 (A549 NSCLC): 78.8 nM
- TGI (A549 NSCLC): > 25000 nM
- GI50 (SNB-19 CNS): 107 nM
- TGI (SNB-19 CNS): > 25000 nM
- GI50 (MALME-3M melanoma): 17.4 nM
- TGI (MALME-3M melanoma): > 25000 nM
- GI50 (SR leukemia): 26 nM
- TGI (SR leukemia): > 9970 nM
- GI50 (NCI-H460 lung): 78.5 nM
- TGI (NCI-H460 lung): > 25000 nM
- GI50 (OVCAR-3 ovarian): 41.7 nM
- TGI (OVCAR-3 ovarian): 107 nM
- GI50 (EKVX NSCLC): 132 nM
- TGI (EKVX NSCLC): > 25000 nM
- GI50 (SF-268 CNS): 171 nM
- TGI (SF-268 CNS): > 25000 nM
- GI50 (UACC-62 melanoma): 18 nM
- TGI (UACC-62 melanoma): > 25000 nM
- GI50 (PC-3 prostate): 79 nM
- TGI (PC-3 prostate): > 25000 nM
- GI50 (A498 renal): 17.1 nM
- TGI (A498 renal): 1830 nM
- GI50 (MDA-MB-231 breast): 148 nM
- TGI (MDA-MB-231 breast): > 14500 nM
- GI50 (IGROV1 ovarian): 177 nM
- TGI (IGROV1 ovarian): > 25000 nM
- TGI (UACC-257 melanoma): > 25000 nM
- GI50 (ACHN renal): 340 nM
- TGI (ACHN renal): > 25000 nM
- GI50 (HOP-62 NSCLC): 82.5 nM
- TGI (HOP-62 NSCLC): > 25000 nM
- GI50 (NCI-H226 lung): 195 nM
- TGI (NCI-H226 lung): > 25000 nM
- GI50 (T-47D breast): 101 nM
- TGI (T-47D breast): > 20100 nM
- GI50 (SN12C renal): 157 nM
- TGI (SN12C renal): > 25000 nM
- GI50 (NCI/ADR-RES ovarian): 12.8 nM
- TGI (NCI/ADR-RES ovarian): 117 nM
- GI50 (HCT-15 colon): 77.5 nM
- TGI (HCT-15 colon): > 25000 nM
- GI50 (DU-145 prostate): 75.9 nM
- TGI (DU-145 prostate): 2860 nM
